# Measurements taken from paper PMC9917560, “Design, Synthesis and Antimicrobial Evaluation of New N-(1-Hydroxy-1,3-dihydrobenzo[c][1,2]oxaborol-6-yl)(hetero)aryl-2-carboxamides as Potential Inhibitors of Mycobacterial Leucyl-tRNA Synthetase” (International Journal of Molecular Sciences, 2023).
# Like-named read-outs stand apart in the source and are kept apart here.
# How the values were obtained:
# [1] = system: Mycobacterium tuberculosis H37Ra ITM-M006710 (ATCC 9431); assay: Antimycobacterial microdilution (resazurin) vs Mtb H37Ra; type: cell-based; settings: Middlebrook 7H9, resazurin, recalculated from µg/mL, read-out: MIC Mtb H37Ra
# [2] = system: Mycobacterium tuberculosis H37Rv CNCTC My 331/88 (ATCC 27294); assay: Microplate Alamar Blue assay vs Mtb H37Rv; type: cell-based; settings: Mycobacterium tuberculosis, pH 6.6, MABA, Middlebrook 7H9 pH 6.6, recalculated from µg/mL; read-out: MIC Mtb H37Rv
# [3] = system: Mycobacterium avium DSM 44,156 (ATCC 25291); assay: Antimycobacterial microdilution (resazurin) vs M. avium; type: cell-based; settings: Mycobacterium avium, Middlebrook 7H9, resazurin; read-out: MIC M. avium
# [4] = system: Mycolicibacterium smegmatis DSM 43,465 (ATCC 607); assay: Antimycobacterial microdilution (resazurin) vs M. smegmatis; type: cell-based
# [5] = system: Mtb IZAK (MDR clinical isolate); assay: microbe, parasite or virus in culture; type: cell-based; settings: Mycobacterium tuberculosis, read-out: MIC Mtb IZAK
# [6] = system: Mtb MATI (MDR clinical isolate); assay: microbe, parasite or virus in culture; type: cell-based; settings: Mycobacterium tuberculosis, read-out: MIC Mtb MATI
# [7] = system: Staphylococcus aureus subsp. aureus CCM 4223 (ATCC 29213); assay: Antibacterial microdilution broth (EUCAST); type: cell-based; settings: read-out: MIC Staphylococcus aureus subsp. aureus
# [8] = system: methicillin-resistant Staphylococcus aureus subsp. aureus (MRSA) CCM 4750 (ATCC 43300); assay: microbe, parasite or virus in culture; type: cell-based; settings: read-out: MIC Methicillin-resistant Staphylococcus aureus subsp. aureus
# [9] = system: Staphylococcus epidermidis CCM 4418 (ATCC 12228); assay: Antibacterial microdilution broth (EUCAST); type: cell-based; settings: read-out: MIC Staphylococcus epidermidis
# [10] = system: Enterococcus faecalis CCM 4224 (ATCC 29212); assay: Antibacterial microdilution broth (EUCAST); type: cell-based; settings: read-out: MIC Enterococcus faecalis
# [11] = system: Escherichia coli CCM 3954 (ATCC 25922); assay: Antibacterial microdilution broth (EUCAST); type: cell-based; settings: Escherichia coli, read-out: MIC Escherichia coli
# [12] = system: Klebsiella pneumoniae CCM 4415 (ATCC 10031); assay: Antibacterial microdilution broth (EUCAST); type: cell-based; settings: Klebsiella pneumoniae, read-out: MIC Klebsiella pneumoniae
# [13] = system: Acinetobacter baumannii DSM 30007 (ATCC 19606); assay: Antibacterial microdilution broth (EUCAST); type: cell-based; settings: read-out: MIC Acinetobacter baumannii
# [14] = system: Pseudomonas aeruginosa CCM 3955 (ATCC 27853); assay: Antibacterial microdilution broth (EUCAST); type: cell-based; settings: read-out: MIC Pseudomonas aeruginosa
# [15] = system: Candida albicans CCM 8320 (ATCC 24433); assay: Antifungal microdilution broth (EUCAST); type: cell-based; settings: Candida albicans, read-out: MIC Candida albicans
# [16] = system: Candida krusei CCM 8271 (ATCC 6258); assay: Antifungal microdilution broth (EUCAST); type: cell-based; settings: Pichia kudriavzevii, read-out: MIC Candida krusei
# [17] = system: Candida parapsilosis CCM 8260 (ATCC 22019); assay: Antifungal microdilution broth (EUCAST); type: cell-based; settings: Lodderomyces parapsilosis, read-out: MIC Candida parapsilosis
# [18] = system: Candida tropicalis CCM 8264 (ATCC 750); assay: Antifungal microdilution broth (EUCAST); type: cell-based; settings: read-out: MIC Candida tropicalis
# [19] = system: Aspergillus fumigatus ATCC 204305; assay: Antifungal microdilution broth (EUCAST); type: cell-based; settings: Aspergillus fumigatus, ATCC204305, read-out: MIC Aspergillus fumigatus
# [20] = system: Aspergillus flavus CCM 8363; assay: Antifungal microdilution broth (EUCAST); type: cell-based; settings: Aspergillus flavus, CCM8363, read-out: MIC Aspergillus flavus
# [21] = system: Lichtheimia corymbifera CCM 8077; assay: Antifungal microdilution broth (EUCAST); type: cell-based; settings: Lichtheimia corymbifera, CCM8077, read-out: MIC Lichtheimia corymbifera
# [22] = system: Trichophyton interdigitale CCM 8377 (ATCC 9533); assay: Antifungal microdilution broth (EUCAST); type: cell-based; settings: Trichophyton interdigitale, read-out: MIC Trichophyton interdigitale
# HepG2 cell line = assay: Cytotoxicity screening, CellTiter 96 assay; settings: Homo sapiens, HepG2, 24 h, read-out: IC50 HepG2
# Mtb laboratory ID IZAK = type: cell-based, Mycobacterium tuberculosis; settings: strain IZAK
# Mtb laboratory ID MATI = type: cell-based, Mycobacterium tuberculosis; settings: strain MATI
structure (smiles),measurement,setting,value
"O=C(Nc1ccc2c(c1)B(O)OC2)c1ccccn1 [Compound 10, N-(1-hydroxy-1,3-dihydrobenzo[c][1,2]oxaborol-6-yl)picolinamide]",MIC,[1],< 62 µM
same,MIC,[2],< 62 µM
same,MIC,[3],< 62 µM
same,MIC,"[4]; Middlebrook 7H9, resazurin, read-out: MIC M. smeg.",< 62 µM
same,MIC,"[4]; read-out: MIC M. smeg., Middlebrook 7H9, resazurin",61.5 µM
same,MIC,[5],98.4 µM
same,MIC,[6],98.4 µM
same,MIC,[7]; 24h incubation,250 µM
same,MIC,[7]; 48h incubation,250 µM
same,MIC,[8]; 24 h,250 µM
same,MIC,[8]; 48 h,250 µM
same,MIC,[9]; 24h incubation,500 µM
same,MIC,[9]; 48h incubation,500 µM
same,MIC,[10]; 24h incubation,> 500 µM
same,MIC,[10]; 48h incubation,> 500 µM
same,MIC,[11]; 24h incubation,> 500 µM
same,MIC,[11]; 48h incubation,> 500 µM
same,MIC,[12]; 24h incubation,> 500 µM
same,MIC,[12]; 48h incubation,> 500 µM
same,MIC,[13]; 24h incubation,> 500 µM
same,MIC,[13]; 48h incubation,> 500 µM
same,MIC,[14]; 24h incubation,> 500 µM
same,MIC,[14]; 48h incubation,> 500 µM
same,MIC,[15]; 24h incubation,> 500 µM
same,MIC,[15]; 48h incubation,> 500 µM
same,MIC,[16]; 24h incubation,> 500 µM
same,MIC,[16]; 48h incubation,> 500 µM
same,MIC,[17]; 24h incubation,> 500 µM
same,MIC,[17]; 48h incubation,> 500 µM
same,MIC,[18]; 24h incubation,> 500 µM
same,MIC,[18]; 48h incubation,> 500 µM
same,MIC,[19]; 24h incubation,> 500 µM
same,MIC,[19]; 48h incubation,> 500 µM
same,MIC,[20]; 24h incubation,> 500 µM
same,MIC,[20]; 48h incubation,> 500 µM
same,MIC,[21]; 24h incubation,> 500 µM
same,MIC,[21]; 48h incubation,> 500 µM
same,MIC,[22]; 72h incubation,> 500 µM
same,MIC,[22]; 120h incubation,> 500 µM
same,melting point,,183.7 to 186.1 °C
same,IC50,HepG2 cell line,> 1000 µM
"[H]/N=C(/N)N[C@H]1[C@H](O)[C@@H](O)[C@H](O[C@@H]2O[C@@H](C)[C@](O)(C=O)[C@H]2O[C@@H]2O[C@@H](CO)[C@H](O)[C@@H](O)[C@@H]2NC)[C@@H](N/C(N)=N\[H])[C@@H]1O [STM, streptomycin]",Concentration,Mtb laboratory ID IZAK; CLSI 2020,6.88 µM
same,Susceptibility,Mtb laboratory ID IZAK; CLSI breakpoints 2020,resistant
same,Concentration,Mtb laboratory ID MATI; CLSI 2021,>27.51 µM
same,Susceptibility,Mtb laboratory ID MATI; CLSI breakpoints 2021,resistant
